The test system of one assay is TLR4-induced IL-23. The assay is described as follows: LPS induced IL23p19 in THP-1 cells (IFNγ primed), IL-23p19 sandwich ELISA. The assay is classed as cell-based, human. The conditions noted are these: human THP-1 cells; result in words. The source says:
LPS induced IL23p19 in THP-1 cells (with IFNy primed) Assay
THP-1 Cells (ATCC, Cat# TIB-202), Dimethyl Sulfoxide (DMSO) (Sigma-Aldrich, Cat# D2650), RPMI 1640 (Cellgro, Cat# 10-040-CM), Fetal Bovine Serum (Sigma, Cat# F4135), Albumin From Bovine Serum (BSA) (Sigma-Aldrich, Cat#A7906), LPS (Serotype K-235, Sigma, Product Number L 2143), IFNγ (Peprotech, Cat# 300-02), Capture antibody: Human IL-23p19 ELISA (e-Bioscience, Cat. # 14-7238-85), Detection antibody: Primary Mouse Biotinylated anti-human IL-12(p40/p70) (e-Bioscience, Cat. # 13-7129-85), Secondary HRP-conjugated Streptavidin (R&D Systems, Cat#DY998), 1x PBST Washing Buffer (PBS-Tween tablet) (VWR International, Cat#80058-558), ELISA Blocking Buffer (PBS with 1% BSA), ELISA Dilution Buffer (PBS with 1% BSA), 384 Well Flat-Bottom, MaxiSorp Black Immuno Plates (Thermo Scientific, Cat# 12-565-346), 384 Well Flat-Bottom, White Tissue Culture Plates (Thermo Scientific, Cat# 12-565-343), Super Signal ELISA Pico Chemiluminescent Substrate (Thermo Scientific, Cat#37070), Cell Titer Glo reagent (Promega, Cat#G7573), Positive control, IKK2VI inhibitor (Calbiochem, Cat#401483), AquaMax 4000 plate washer (Molecular Devices), Luminometer, Wallac Victor2 1420 Multilabel Counter.
On day 1, 50K/well THP-1 cells were seeded and primed with IFNγ (50ng/mL) in 384-well plates for about 18 hours in RPMI media with 10%FBS. On day 2, the compound was serially diluted in DMSO from 5 mM in 3-fold dilutions, and then diluted 1:125 in RPMI media with 10%FBS. […] IL-23p19 protein in 70 µL/well of supernatant was measured by sandwich ELISA, and 25 µl/well Cell Titer Glo reagent was added to the remaining cells to measure compound toxicity.
Maxisorp immuno ELISA plates were pre-coated with 25 µL/well of anti-IL-23p19 capture antibody (2.5ug/mL) in PBS overnight at room temperature. […] The plates were read with a luminometer, and the chemiluminescence values were entered into Athena (Rigel) for curve fitting, EC50 calculation, and database storage. […]
(In general: An ELISA detects its analyte on a solid surface through an enzyme-linked reagent.)

The next assay has as its system TLR7-induced TNF-α. The experiment in a line: TLR7-induced TNF-α in human PBMC (resiquimod). The assay is classed as cell-based. To be noted: human PBMCs; result in words. On the procedure:
Assay Protocol: TLR7-induced TNF-α in human Peripheral Blood Mononuclear Cells (PBMC).
• Corning™ Costar™ 96-Well, Cell Culture-Treated, U-Shaped-Bottom Microplate (Fisher, Cat# 07-200-95) • Human PBMC (ALL Cells, Cat# PB002) • Resiquimod (InvivoGen, Cat No. tlrl-r848) • Human TNF-α DuoSet ELISA Kit (R&D Systems, Cat# DY210) • Recombinant Human IFN-β (Peprotech, Cat# 300-02BC) • RPMI with 10% FBS • Axygen 96well, 1.1 mL, sterile (VWR International, Cat# 47734-788)
Human peripheral blood mononuclear cells (PBMC) were seeded at 100,000 cells per well in 100 µL of RPMI with 10% FCS and primed overnight with 8 ng/ml of IFN-β at 37 °C, 5% CO2. Compound was serially diluted in DMSO from 2 mM in 3-fold dilutions, and then diluted 1:100 in RPMI 1640 complete media with 10% FBS (2 x stock). The PBMCs were pre-incubated with test compound for 1 hour at 37 °C, 5% CO2 by adding 100 µL of RPMI media containing 2x concentrated test compound per well (0.5% final DMSO concentration).
The PBMCs were stimulated with resiquimod (10 µL per well of 21x concentrated resiquimod solution in RPMI media to give a final concentration of 0.1 µg/ml) at 37 °C, 5% CO2 for an additional 18 hours. 100 µL of supernatant per well was harvested to measure TNF-α. TNF-α was quantitated using DuoSet ELISA Kit per manufacturer's protocol.

As for `CCO[C@H]1CC[C@H](n2cc(NC(=O)c3csc(-c4cn[nH]c4)n3)c(-c3ncccn3)n2)CC1` [Compound I-1, N-(1-((1r,4r)-4-ethoxycyclohexyl)-3-(pyrimidin-2-yl)-1H-pyrazol-4-yl)-2-(1H-pyrazol-4-yl)thiazole-4-carboxamide], the “TLR4-induced IL-23 production” value in the assay on TLR4-induced IL-23 is “inhibits”. Besides, the TLR7-dependent cytokine production result in the assay on TLR7-induced TNF-α is listed as “potent inhibitor”.

For the origin of these results see patent EP4799701A2, “PYRIMID-2-YL-PYRAZOLE COMPOUNDS AS IRAK INHIBITORS” (Rigel Pharmaceuticals, Inc., priority 2022, dated 2023).
